Experimental data as given in publication PMC5423977, “Safety, pharmacokinetics, and pharmacodynamics of BMS-986142, a novel reversible BTK inhibitor, in healthy participants” (European Journal of Clinical Pharmacology, 2017).
Read-outs that look alike come from different tables or passages of the source.

Experiment: Plasma pharmacokinetics of BMS-986142, SAD
Format: in vivo
Conditions: human, oral; for AUC(0-t): n = 6, read-out: AUC(0-T) geometric mean (%CV); for Cmax: n = 6, read-out: Cmax geometric mean (%CV)
Method: Eligible participants were confined to the clinical facility (WCCT Global, LLC, Cypress, CA) the day before dosing (day −1) and randomized to receive SAD or MAD treatment under fasting conditions for 10 h. In the SAD group, eight healthy non-Japanese participants were assigned to each of up to six sequential dose panels (single oral doses of 5, 15, 50, 100, 300, and 900 mg BMS-986142) or placebo. Within each dose panel, participants were randomized in a 3:1 ratio to receive BMS-986142 (n = 6) or placebo (n = 2). In the MAD group, eight healthy non-Japanese participants were assigned to each of four sequential dose panels (daily oral doses of 25, 75, 200, and 350 mg BMS-986142) or placebo. Within each dose panel, participants were randomized in a 3:1 ratio to receive once-daily (QD) doses of BMS-986142 or placebo from day 1 to day 14 (Online Resource 1). Escalation to the next dose level in SAD and MAD was conducted after safety assessment had been completed and the treatment was considered safe and well tolerated. Additionally, dose levels in MAD were selected not to exceed the steady-state exposure of BMS-986142 (AUC: 22,920 ng h/mL) at NOAEL in rats obtained from a 1-month GLP toxicology study.
Blood samples for the measurement of BMS-986142 were collected up to 168 h after dosing of BMS-986142 on day 1 for participants in SAD. In MAD, blood samples were collected up to 24 h on day 1 and up to 120 h on day 14 (the last day of treatment). Blood samples for the measurement of MTX were collected up to 48 h after dosing of MTX on days 1 and 8.
Plasma samples were analyzed for BMS-986142 levels with a validated method using liquid chromatography tandem mass spectrometry (LC-MS/MS) detection. The analyte was extracted from 50 μL of plasma using a liquid–liquid extraction method. Methyl tert-butyl ether was used as the extraction solvent. The lower limit of quantification (LLOQ) was 1.00 ng/mL in plasma. Plasma samples were analyzed for methotrexate levels using LC-MS/MS detection. Analytes were isolated from 50 μL plasma through solid phase extraction using Waters Oasis MAX, 10-mg, 96-well SPE plates. The final extract was analyzed using LC-MS/MS detection. LLOQ was 1.00 ng/mL in plasma. Detailed methodology quantitating the concentration level of BMS-986142 and MTX is provided in Online Resource 10.
Individual subject pharmacokinetic parameters for BMS-986142 and MTX were derived by a non-compartmental method using validated PK software (WinNonLin version 6.3; Pharsight Corporation, Mountain View, CA, USA). The following PK parameters for BMS-986142 and MTX were derived from plasma concentration versus time data: maximum observed plasma concentration (Cmax); minimum observed plasma concentration (Cmin); time to maximum observed plasma concentration (Tmax); area under the plasma concentration-time curve from time zero to the time of the last quantifiable concentration (AUC(0-T)), from time zero extrapolated to infinite time (AUC(inf)), and in one dosing interval (AUC(TAU)); terminal plasma half-life (T1/2); and AUC accumulation index (AI_AUC). AI_AUC was calculated to divide AUC(TAU) on day 14 by AUC(TAU) on day 1.
Summary statistics were tabulated for all PK parameters by treatment and study days. Geometric mean (Gmean) and coefficient of variation (CV) are presented for Cmax, AUC(0-T), AUC(inf), AI_AUC, Cmin, and AUC(TAU); arithmetic mean and standard deviation (SD) are presented for T1/2; and median and range are presented for Tmax. Dose proportionality was assessed using the previously described power model. Briefly, the simple linear regression was applied to the natural log of the PK parameters on the natural log of dose using the following equation (Eq. 1).1 ElogPKParameterDose=α+β∗logDose.
A slope (β) equal to 1 would indicate perfect dose proportionality. For each PK parameter (Cmax, AUC(0-T), AUC(TAU), and AUC(inf)), point estimates and 90% CI of the slopes were calculated.

## Cc1c(-c2c(F)cc(C(N)=O)c3[nH]c4c(c23)CC[C@H](C(C)(C)O)C4)cccc1-n1c(=O)c2cccc(F)c2n(C)c1=O [BMS-986142, 6-fluoro-5-(R)-(3-(S)-(8-fluoro-1-methyl-2,4-dioxo-1,2-dihydroquinazolin-3(4H)-yl)-2-methylphenyl)-2-(S)-(2-hydroxypropan-2-yl)-2,3,4,9-tetrahydro-1H-carbazole-8-carboxamide]
Both sexes, 5 mg, at low dose levels, read-out: T1/2 (converted)
  half-life: ~7 h
Both sexes, at therapeutic doses, read-out: Mean T1/2
  half-life: ≤ 11 h
Both sexes, single dose, 5–900 mg dose range, read-out: Mean T1/2 (half-life), range over doses
  half-life: 7 to 11 h
Both sexes, single dose, 5–900 mg dose range, read-out: Median Tmax (time of peak concentrations)
  Tmax: ≤ 2 h
5 mg, SAD day 1, 5 mg, n = 5, read-out: T1/2 mean (SD) (converted)
  half-life: 6.87 h
15 mg, SAD day 1, 15 mg, n = 6, read-out: T1/2 mean (SD) (converted)
  half-life: 8.02 h
50 mg, SAD day 1, 50 mg, n = 6, read-out: T1/2 mean (SD) (converted)
  half-life: 9.7 h
100 mg, SAD day 1, 100 mg, n = 6, read-out: T1/2 mean (SD) (converted)
  half-life: 10.3 h
300 mg, SAD day 1, 300 mg, n = 6, read-out: T1/2 mean (SD) (converted)
  half-life: 10.6 h
900 mg, SAD day 1, 900 mg, n = 6, read-out: T1/2 mean (SD) (converted)
  half-life: 10.7 h
SAD day 1, 5 mg, n = 5, read-out: AUC(inf) geometric mean (%CV)
  AUC(0-inf): 102 ng·h/mL
SAD day 1, 5 mg
  AUC(0-t): 83.1 ng·h/mL
  Cmax: 9.03 ng/mL
SAD day 1, 5 mg, n = 6, read-out: Tmax median (min, max)
  Tmax: 2.03 h
SAD day 1, 15 mg
  AUC(0-t): 369 ng·h/mL
  Cmax: 36.9 ng/mL
SAD day 1, 15 mg, n = 6, read-out: AUC(inf) geometric mean (%CV)
  AUC(0-inf): 388 ng·h/mL
SAD day 1, 15 mg, n = 6, read-out: Tmax median (min, max)
  Tmax: 2 h
SAD day 1, 50 mg
  AUC(0-t): 1560 ng·h/mL
  Cmax: 185 ng/mL
SAD day 1, 50 mg, n = 6, read-out: AUC(inf) geometric mean (%CV)
  AUC(0-inf): 1590 ng·h/mL
SAD day 1, 50 mg, n = 6, read-out: Tmax median (min, max)
  Tmax: 1 h
SAD day 1, 100 mg
  AUC(0-t): 3000 ng·h/mL
  Cmax: 311 ng/mL
SAD day 1, 100 mg, n = 6, read-out: AUC(inf) geometric mean (%CV)
  AUC(0-inf): 3020 ng·h/mL
SAD day 1, 100 mg, n = 6, read-out: Tmax median (min, max)
  Tmax: 1.5 h
SAD day 1, 300 mg
  AUC(0-t): 11300 ng·h/mL
  Cmax: 1080 ng/mL
SAD day 1, 300 mg, n = 6, read-out: AUC(inf) geometric mean (%CV)
  AUC(0-inf): 11400 ng·h/mL
SAD day 1, 300 mg, n = 6, read-out: Tmax median (min, max)
  Tmax: 1.02 h
SAD day 1, 900 mg
  AUC(0-t): 28000 ng·h/mL
  Cmax: 1880 ng/mL
SAD day 1, 900 mg, n = 6, read-out: AUC(inf) geometric mean (%CV)
  AUC(0-inf): 28100 ng·h/mL
SAD day 1, 900 mg, n = 6, read-out: Tmax median (min, max)
  Tmax: 2 h
